Reference: article PMC2360206 (British Journal of Cancer, 2006)
“Also recorded” adds a separate entry of the source.

Assays:
[1] = Phase I toxicity (NCI CTC v2.0) in patients; assay type: in vivo, human; conditions: for No. with grade 3 & 4 ALT increased / No. with grade 3 & 4 AST increased / No. with grade 3 & 4 Alk Phos increase / No. with grade 3 & 4 Anorexia / No. with grade 3 & 4 Bilirubin increase / No. with grade 3 & 4 CKMB increase / No. with grade 3 & 4 Fatigue / No. with grade 3 & 4 Hyperglycaemia / No. with grade 3 & 4 Hypokalemia / No. with grade 3 & 4 Hyponatraemia / No. with grade 3 & 4 Hypotension / No. with grade 3 & 4 Lymphopenia / No. with grade 3 & 4 Rash / No. with grade 3 & 4 adverse events / No. with grade 3 & 4 γ GT increase: first course; for Patients with derangements in liver biochemistry (γGT and ALP elevations): 7-day treatment period
From the text: Dose-limiting toxicity (DLT) was defined as drug-related toxicity in the first cycle, including grade 4 neutropenia for 7 days or more, neutropenic fever, platelet count <25 × 10^9 l^−1 and/or non-haematological toxicity⩾grade 3. This definition excluded nausea and vomiting subsequently responding to antiemetic therapy and reversible grade 3 increases in liver transaminases. The maximum tolerated dose (MTD) was defined as a dose below which DLT occurred in more than 30% of the patients. Toxicities were evaluated according to the National Cancer Institute Common Toxicity Criteria, version 2.0.
Before commencing treatment, a complete medical history was taken and physical examination was performed. The following pretreatment baseline examinations were performed within 4 weeks of starting treatment: full blood count, including white blood cell differential; reticulocyte count, haptoglobin, prothrombin time and Coombs test; serum biochemistry, including sodium, potassium, urea, creatinine, calcium, phosphorus, creatine kinase and isoenzymes, total protein, albumin, bilirubin (direct and total), alkaline phosphatase (ALP), alanine aminotransferase (ALT), aspartate aminotransferase (AST), γ-glutamyl transferase (γGT), lactate dehydrogenase and uric acid; urinalysis; pregnancy test, electrocardiogram and a chest X-ray. Weekly evaluations included history, physical examination, toxicity assessment according to the CTC criteria version 2.0 and full blood count and serum chemistries. Radiographic assessment of tumour was performed within 3 weeks before the patient starting treatment and after every two cycles, according to standard RECIST methodology. Patients were taken off protocol upon disease progression, unacceptable toxicity, investigator discretion, serious violation of protocol or at their own request, and were followed for 28 days after the last administration of the study drug.
In addition, more intensive blood chemistry testing was performed on days 1, 3, 5 and 7.

[2] = test system: Retinoblastoma phosphorylation and cyclin D1 levels in peripheral blood mononuclear cells; experiment: Pharmacodynamics in peripheral blood mononuclear cells (western blot); assay type: in vivo, human; conditions: peripheral blood mononuclear cells of patients, first cycle
Experimental: Whole blood was collected from patients at selected time points into lithium–heparin Vacutainer® tubes (Vacutainer, BD, Franklin Lakes, NJ, USA). Each tube was inverted several times to ensure thorough mixing and then mixed with sterile 0.9% saline at a ratio of 1:1. This was then layered over ficol (Lymphoprep® Nycomed, Oslo, Norway) and centrifuged at 1200 r.p.m. (400 g equivalent) at 18°C for 30 min. The resulting mononuclear cell layer was then removed and resuspended in 0.9% NaCl. Cell pellets were obtained by centrifugation (600 g) and flash frozen in liquid nitrogen. Mononuclear cells were then stored at −70°C in labelled cryovials until further analysis.
Cell pellets were treated with lysis buffer (50 mM Tris–HCl, 150 mM NaCl, pH 7.5, 1% NP40, 2 mM PMSF, 10 μg ml^−1 aprotinin, 10 μg ml^−1 leupeptin, 1 mM activated sodium orthovanadate, 1 mM sodium fluoride and 10 mM β-glycerophosphate) for 30 min on ice. Samples (20–100 μg of protein) were heat-denatured in Laemmli sample buffer (10% glycerol, 5% β-mercaptoethanol, 2% sodium dodecyl sulphate (SDS), 62.5 mM Tris (pH 6.8), 0.05% bromphenol blue, final concentrations) and separated by SDS—polyacrylamide gel electrophoresis (PAGE) using pre-cast 10 or 15-well 20 or 10% Tris–glycine polyacrylamide gels (Invitrogen, Netherlands). […]

Cdk4 = conditions: background statement, no reference given; cited from earlier work
Cdk8 = conditions: background statement, no reference given; cited from earlier work
[3] = set-up: method as in Raynaud et al, 2005; conditions: mouse, single dose 500 mg kg^−1 p.o.; ref Raynaud et al, 2005; cited from earlier work
[4] = 28 days treatment in rodents; no reference given; cited from earlier work
[5] = set-up: method as in Pierga et al, 2003; conditions: for 5 days, twice-daily oral schedule; ref Pierga et al, 2003; cited from earlier work
[6] = same patient, 800 mg b.i.d., course 2

CC[C@H](CO)Nc1nc(NCc2ccccc2)c2ncn(C(C)C)c2n1 [Seliciclib]
No. with grade 3 & 4 ALT increased ([1]; 100 mg b.i.d, 3 subjects): 0
No. with grade 3 & 4 AST increased ([1]; 100 mg b.i.d, 3 subjects): 0
No. with grade 3 & 4 Alk Phos increase ([1]; 100 mg b.i.d, 3 subjects): 0
No. with grade 3 & 4 Anorexia ([1]; 100 mg b.i.d, 3 subjects): 0
No. with grade 3 & 4 Bilirubin increase ([1]; 100 mg b.i.d, 3 subjects): 0
No. with grade 3 & 4 CKMB increase ([1]; 100 mg b.i.d, 3 subjects): 0
No. with grade 3 & 4 Fatigue ([1]; 100 mg b.i.d, 3 subjects): 0
No. with grade 3 & 4 Hyperglycaemia ([1]; 100 mg b.i.d, 3 subjects): 0
No. with grade 3 & 4 Hypokalemia ([1]; 100 mg b.i.d, 3 subjects): 0
No. with grade 3 & 4 Hyponatraemia ([1]; 100 mg b.i.d, 3 subjects): 0
No. with grade 3 & 4 Hypotension ([1]; 100 mg b.i.d, 3 subjects): 0
No. with grade 3 & 4 Lymphopenia ([1]; 100 mg b.i.d, 3 subjects): 0
No. with grade 3 & 4 Rash ([1]; 100 mg b.i.d, 3 subjects): 0
No. with grade 3 & 4 adverse events ([1]; 100 mg b.i.d, 3 subjects): 0
No. with grade 3 & 4 γ GT increase ([1]; 100 mg b.i.d, 3 subjects): 0
Toxicity at the 100 mg dose level ([1]; 100 mg b.i.d., three patients): No significant toxicity
No. with grade 3 & 4 ALT increased ([1]; 200 mg b.i.d, 6 subjects): 1
No. with grade 3 & 4 AST increased ([1]; 200 mg b.i.d, 6 subjects): 1
No. with grade 3 & 4 Alk Phos increase ([1]; 200 mg b.i.d, 6 subjects): 1
No. with grade 3 & 4 Anorexia ([1]; 200 mg b.i.d, 6 subjects): 0
No. with grade 3 & 4 Bilirubin increase ([1]; 200 mg b.i.d, 6 subjects): 1
No. with grade 3 & 4 CKMB increase ([1]; 200 mg b.i.d, 6 subjects): 1
No. with grade 3 & 4 Fatigue ([1]; 200 mg b.i.d, 6 subjects): 0
No. with grade 3 & 4 Hyperglycaemia ([1]; 200 mg b.i.d, 6 subjects): 0
No. with grade 3 & 4 Hypokalemia ([1]; 200 mg b.i.d, 6 subjects): 0
No. with grade 3 & 4 Hyponatraemia ([1]; 200 mg b.i.d, 6 subjects): 0
No. with grade 3 & 4 Hypotension ([1]; 200 mg b.i.d, 6 subjects): 0
No. with grade 3 & 4 Lymphopenia ([1]; 200 mg b.i.d, 6 subjects): 0
No. with grade 3 & 4 Rash ([1]; 200 mg b.i.d, 6 subjects): 0
No. with grade 3 & 4 adverse events ([1]; 200 mg b.i.d, 6 subjects): 2
No. with grade 3 & 4 γ GT increase ([1]; 200 mg b.i.d, 6 subjects): 1
Patients with derangements in liver biochemistry (γGT and ALP elevations) ([1]; 200 mg b.i.d.): 4 out of 6
No. with grade 3 & 4 ALT increased ([1]; 800 mg b.i.d, 12 subjects): 0
No. with grade 3 & 4 AST increased ([1]; 800 mg b.i.d, 12 subjects): 0
No. with grade 3 & 4 Alk Phos increase ([1]; 800 mg b.i.d, 12 subjects): 0
No. with grade 3 & 4 Anorexia ([1]; 800 mg b.i.d, 12 subjects): 1
No. with grade 3 & 4 Bilirubin increase ([1]; 800 mg b.i.d, 12 subjects): 0
No. with grade 3 & 4 CKMB increase ([1]; 800 mg b.i.d, 12 subjects): 0
No. with grade 3 & 4 Fatigue ([1]; 800 mg b.i.d, 12 subjects): 1
No. with grade 3 & 4 Hyperglycaemia ([1]; 800 mg b.i.d, 12 subjects): 1
No. with grade 3 & 4 Hypokalemia ([1]; 800 mg b.i.d, 12 subjects): 3
No. with grade 3 & 4 Hyponatraemia ([1]; 800 mg b.i.d, 12 subjects): 1
No. with grade 3 & 4 Hypotension ([1]; 800 mg b.i.d, 12 subjects): 1
No. with grade 3 & 4 Lymphopenia ([1]; 800 mg b.i.d, 12 subjects): 1
No. with grade 3 & 4 Rash ([1]; 800 mg b.i.d, 12 subjects): 1
No. with grade 3 & 4 adverse events ([1]; 800 mg b.i.d, 12 subjects): 7
No. with grade 3 & 4 γ GT increase ([1]; 800 mg b.i.d, 12 subjects): 3
Patients with hypokalaemia (<3.0 mmol l^−1) ([1]; 800 mg b.i.d.): five of 12
Patients with seliciclib-induced hyperglycaemia ([1]; 800 mg b.i.d.): five and five of 12
Dose-limiting toxicities ([1]; 800 mg b.i.d. p.o., 7 days every 21 days): grade 3 fatigue, grade 3 skin rash, grade 3 hyponatraemia and grade 4 hypokalaemia
Patients with derangements in liver biochemistry (γGT and ALP elevations) ([1]; 800 mg b.i.d.): 10 out of 12
Patients with grade 1 hypokalaemia ([1]; 800 mg b.i.d., 12 patients): two
Patients with grade 3 hypokalaemia ([1]; 800 mg b.i.d., 12 patients): two
Patients with grade 4 hypokalaemia ([1]; 800 mg b.i.d., 12 patients): one
Patients who experienced nausea ([1]; 800 mg dose level, not dose-limiting): 11 of the 12
Overall haematological toxicity ([1]; all dose levels): mild
Patients with seliciclib-related DLTs ([1]; final six patients treated at 800 mg): Four of the final six
Serum potassium (lowest level) ([1]; one patient, 800 mg b.i.d., day 7 of course 1): 2.2 mmol/L
Blood pressure (hypotension) [1, 6]: 82/52
Serum potassium nadir [1, 6]: 2.5 mmol/L
Serum sodium (hyponatraemia) [1, 6]: 127 mmol/L
Creatinine ([1]; same patient, 800 mg b.i.d., course 2, normal range <110): 130 µmol/L
Alterations of retinoblastoma phosphorylation and cyclin D1 levels [2]: not demonstrated; also recorded: No reliably detectable alterations
Inhibition of Cdk4 (Cdk4): only a weak inhibitor
Inhibition of Cdk8 (Cdk8): only a weak inhibitor
peak seliciclib concentration [3]: approximately 100 μM
Preclinical toxicology findings [4]: anaemia, leucocytosis, bone marrow hyperplasia, polydipsia, polyuria and gastric ulceration
Recommended phase II dose [5]: 2500 mg per day
